Two compounds from patent US20070167402A1, “Product of coprecipitation of sparingly soluble substance and water-soluble polymer and process for producing the same” (Meiji Seika Kaisha, Ltd., priority 2003, published 2007) can be followed below.

The nature of this data set: Test 1: Solubility Test (water as test medium, 37° C., HPLC). It counts as physicochemical. The note with it: for solubility in aqueous methyl cellulose or HPMC solution: test medium e.g. 0.5% aqueous methyl cellulose or HPMC solution, compared with value in water (below 3 μg/mL); for solubility (concentration of Compound A in suspension): 37° C., at the point of 30 minutes in Test 1. How it is done:
Each mixture was sampled at several points of time, and each sample was filtered through a membrane filter (Sunprep LCR13-LG, manufactured by Millipore Corp., Japan).
The measurement conditions used for HPLC in Test 1 were as follows: • Detector: Ultraviolet absorptiometer (measurement wavelength: 246 nm) • Column: Stainless steel tube with an inner diameter of 4.6 mm and a length of 25 cm, for 5 μm liquid chromatography, • Column temperature: Fixed temperature at around 40° C. • Mobile phase: Mixture of methanol and water (55:45) • Flow rate: 1 mL/min

With `COc1cc2[nH]c(=O)c3nn(C(OC(=O)OC(C)C)C(C)C)nc3c(=O)c2cc1OC` (single isomer, unassigned) [Comparative Example 1, 2-(1-Isopropoxycarbonyloxy-2-methylpropyl)-7,8-dimethoxy-4(5H), 10-dioxo-2H-1,2,3-triazolo[4,5-c][1]benzazepine], the “solubility in aqueous methyl cellulose or HPMC solution” value is recorded as “nearly equal to the above-described value of concentration”. The “solubility (concentration of Compound A in suspension)” value (water) amounted to 0.8 µg/mL. The solubility (water, 37 °C, water, thermodynamic from solid, water 37° C., 200 rpm paddles, at 30 minutes after the beginning of the test and after, read-out: concentration of Compound A in solubility test (FIG. 1)) is under 3 µg/mL.

For `COc1cc2[nH]c(=O)c3nn(C(OC(=O)OC(C)C)C(C)C)nc3c(=O)c2cc1OC` (single isomer, unassigned) [Comparative Example 2, 2-(1-Isopropoxycarbonyloxy-2-methylpropyl)-7,8-dimethoxy-4(5H), 10-dioxo-2H-1,2,3-triazolo[4,5-c][1]benzazepine], the “solubility in aqueous methyl cellulose or HPMC solution” value is recorded as “nearly equal to the above-described value of concentration”. The “solubility (concentration of Compound A in suspension)” value (water) amounted to 2.4 µg/mL.
